What was measured:
Assay type in all cases: in vivo
[1] = system: Amaranthus retroflexus (AMARE); assay: Post-emergence herbicidal action against Amaranthus retroflexus; settings: 1280 g/ha; rated visually after about 3 weeks vs untreated controls; 100% = plants have died, 0% = like control plants
Method: (§1) Seeds of mono- and dicotyledonous weed plants were placed in plastic pots in sandy loam soil (doubly sown with in each case one species of mono- or dicotyledonous weed plants per pot), covered with soil and cultivated in a greenhouse under controlled growth conditions. 2 to 3 weeks after sowing, the test plants were treated at the one-leaf stage. The compounds of the invention, formulated in the form of wettable powders (WP) or as emulsion concentrates (EC), were applied onto the green parts of the plants as aqueous suspension or emulsion with addition of 0.5% additive at a water application rate of 600 liters per hectare (converted). After the test plants had been kept in the greenhouse under optimum growth conditions for about 3 weeks, the activity of the preparations was rated visually in comparison to untreated controls. For example, 100% activity=the plants have died, 0% activity=like control plants. Tables B1 to B8 below show the effects of selected compounds of the general formula (I) according to Table 1 on various harmful plants and an application rate corresponding to 1280 g/ha, which were obtained by the experimental procedure mentioned above.

[2] = system: Amaranthus retroflexus (AMARE); assay: Pre-emergence herbicidal action against Amaranthus retroflexus; settings: 1280 g/ha; scored visually after about 3 weeks vs untreated controls; 100% = plants have died, 0% = like control plants
Text: (§2) Seeds of mono- and dicotyledonous weed plants were placed in plastic pots in sandy loam soil (doubly sown with in each case one species of mono- or dicotyledonous weed plants per pot) and covered with soil. The compounds of the invention, formulated in the form of wettable powders (WP) or as emulsion concentrates (EC), were then applied onto the surface of the covering soil as aqueous suspension or emulsion with addition of 0.5% additive at a water application rate of 600 liters per hectare (converted). After the treatment, the pots were placed in a greenhouse and kept under good growth conditions for the test plants. After about 3 weeks, the effect of the preparations was scored visually in comparison with untreated controls as percentages. For example, 100% activity=the plants have died, 0% activity=like control plants. Tables C1 to C8 below show the effects of selected compounds of the general formula (I) according to Table 1 on various harmful plants and an application rate corresponding to 1280 g/ha, which were obtained by the experimental procedure mentioned above.

Poa annua (POAAN) [3] = assay: Pre-emergence herbicidal action against Poa annua; settings: 1280 g/ha; scored visually after about 3 weeks vs untreated controls; 100% = plants have died, 0% = like control plants
Text: as §2

[4] = system: Matricaria inodora (MATIN); assay: Pre-emergence herbicidal action against Matricaria inodora; settings: 1280 g/ha; scored visually after about 3 weeks vs untreated controls; 100% = plants have died, 0% = like control plants
Text: as §2

[5] = system: Abutilon theophrasti (ABUTH); assay: Post-emergence herbicidal action against Abutilon theophrasti; settings: 1280 g/ha; rated visually after about 3 weeks vs untreated controls; 100% = plants have died, 0% = like control plants
Method: as §1

Setaria viridis (SETVI) = assay: Pre-emergence herbicidal action against Setaria viridis; settings: 1280 g/ha; scored visually after about 3 weeks vs untreated controls; 100% = plants have died, 0% = like control plants
Text: as §2

Stellaria media (STEME) [6] = assay: Post-emergence herbicidal action against Stellaria media; settings: 1280 g/ha; rated visually after about 3 weeks vs untreated controls; 100% = plants have died, 0% = like control plants
Method: as §1

Stellaria media (STEME) [7] = assay: Pre-emergence herbicidal action against Stellaria media; settings: 1280 g/ha; scored visually after about 3 weeks vs untreated controls; 100% = plants have died, 0% = like control plants
Text: as §2

Lolium rigidum (LOLRI) = assay: Pre-emergence herbicidal action against Lolium rigidum; settings: 1280 g/ha; scored visually after about 3 weeks vs untreated controls; 100% = plants have died, 0% = like control plants
Text: as §2

[8] = system: Echinochloa crus-galli (ECHCG); assay: Pre-emergence herbicidal action against Echinochloa crus-galli; settings: 1280 g/ha; scored visually after about 3 weeks vs untreated controls; 100% = plants have died, 0% = like control plants
Text: as §2

[9] = system: Abutilon theophrasti (ABUTH); assay: Pre-emergence herbicidal action against Abutilon theophrasti; settings: 1280 g/ha; scored visually after about 3 weeks vs untreated controls; 100% = plants have died, 0% = like control plants
Text: as §2

Poa annua (POAAN) [10] = assay: Post-emergence herbicidal action against Poa annua; settings: 1280 g/ha; rated visually after about 3 weeks vs untreated controls; 100% = plants have died, 0% = like control plants
Method: as §1

Row | SMILES | Post-emergence action against Amaranthus retroflexus (AMARE) [1] [%] | Pre-emergence action against Amaranthus retroflexus (AMARE) [2] [%] | Pre-emergence action against Poa annua (POAAN) (Poa annua (POAAN) [3]) [%] | Pre-emergence action against Matricaria inodora (MATIN) [4] [%] | Post-emergence action against Abutilon theophrasti (ABUTH) [5] [%] | Pre-emergence action against Setaria viridis (SETVI) (Setaria viridis (SETVI)) [%] | Post-emergence action against Stellaria media (STEME) (Stellaria media (STEME) [6]) [%] | Pre-emergence action against Stellaria media (STEME) (Stellaria media (STEME) [7]) [%] | Pre-emergence action against Lolium rigidum (LOLRI) (Lolium rigidum (LOLRI)) [%] | Pre-emergence action against Echinochloa crus-galli (ECHCG) [8] [%] | Pre-emergence action against Abutilon theophrasti (ABUTH) [9] [%] | Post-emergence action against Poa annua (POAAN) (Poa annua (POAAN) [10]) [%]
1 | Fc1cnc(Oc2ncccc2Sc2ccc(F)cc2F)nc1 [Example I-156] | 100 | 100 | 100 | 90 | 100 | 90 | 100 | 100 | – | – | – | –
2 | Cc1ccc(Cc2ccccc2)c(Oc2ncc(Cl)cn2)n1 [Example I-397] | – | 90 | 100 | 100 | 90 | 100 | 100 | 100 | 100 | 100 | 100 | 100
3 | COc1cc(Cc2ccc(C)nc2Oc2ncc(Cl)cn2)ccc1F [Example I-406] | 90 | 90 | 100 | 100 | – | 100 | 90 | 100 | 90 | – | – | 90
4 | Cc1ccc(Cc2ccccc2)c(Oc2ncc(F)cn2)n1 [Example I-430] | 90 | 100 | 100 | 100 | – | 100 | 100 | 100 | 90 | 100 | 100 | 90
5 | COc1cc(Cc2ccc(C)nc2Oc2ncc(F)cn2)ccc1F [Example I-439] | – | 90 | 100 | – | – | 100 | 90 | 100 | – | 100 | 100 | –
6 | Cc1ccc(Cc2ccccc2)c(Oc2ncccn2)n1 [Example I-441] | 100 | 100 | 100 | 100 | – | 100 | 100 | 100 | 90 | 100 | 100 | –
7 | COc1cc(Cc2ccc(C)nc2Oc2ncccn2)ccc1F [Example I-450] | 90 | 90 | 100 | 100 | – | 100 | – | 100 | 90 | 90 | 100 | –
8 | Cc1ccc(Cc2c(C)cc(C)nc2Oc2ncc(F)cn2)cc1 [Example I-486] | 90 | 100 | 100 | – | 90 | 100 | 100 | 100 | 90 | 100 | 100 | 100
9 | COc1cc(Oc2ccc(C)nc2Oc2ncc(F)cn2)ccc1F [Example I-520] | 100 | 100 | 100 | 100 | 90 | 90 | – | 100 | 100 | – | 90 | –
10 | Cc1ccc(Oc2ccccc2)c(Oc2ncccn2)n1 [Example I-522] | 100 | 90 | 100 | 90 | – | 100 | 100 | 100 | 90 | 100 | 100 | 90
11 | Cc1ccc(Oc2ccc(Cl)cc2)c(Oc2ncccn2)n1 [Example I-526] | – | 100 | 100 | 100 | – | 100 | – | 100 | – | 100 | 100 | 100
12 | Cc1ccc(Oc2ccccc2)c(Oc2ncc(C(F)(F)F)cn2)n1 [Example I-533, 2-[(6-Methyl-3-phenoxy-2-pyridyl)oxy]-5-(trifluoromethyl)pyrimidine] | – | – | 90 | – | – | 90 | – | 100 | – | 90 | – | 100
